According to patent US11186807B2, “Reducing acetate ester production in yeast” (VIB VZW, priority 2017, dated 2021):

Tested on: respiration in yeast (S288c and Hybrid A)
Test: Acetate ester production in mini-scale yeast fermentation with or without Antimycin A
Type: cell-based, Saccharomyces cerevisiae
Details: 3 mg/L Antimycin A in medium; genetic backgrounds S288c and Hybrid A; FIG. 7B
From the text: One of the main functions of the IMP complex is processing of subunits of the respiration chain. Given the surprising finding that genetic inference with the IMP complex reduces the production of acetate esters (see Example 5 and 8), we wondered whether respiration in general modulates acetate ester production. First, yeasts strains were developed in which five genes known to be crucial for respiration (i.e. CBS1, COR1, COX9, QCR9 and COX12) were separately deleted and subsequently were used in a fermentation experiment to determine aroma production. All selected genes function independently from the IMP complex. […] More precisely, an experiment was performed in which acetate ester production of a yeast strain was measured in medium with or without supplementation of 3 mg/L Antimycin A, a chemical compound blocking the respiratory pathway (Kim et al 1999 J Am Chem Soc 121:4902). […]
Phenotyping of the individual segregants for IA production was performed using an in situ approach, and was conducted as follows: the segregants were streaked from the −80° C. stock on YPGlu 2% agar plates for 48 h at 30° C. […] After 96 h, the fermentation was ended, excess CO2 was once again released by brief opening of the vials, and the vials were measured using gas chromatography (see further). […]

## Antimycin A
  drop of isoamyl acetate production: about 50%
